# Laboratory results published in US20100273770A1, “1, 2, 4 -OXADIAZOLE COMPOUNDS FOR THE TREATMENT OF AUTOIMMUNE DISEASES” (priority 2007, published 2010).
# Structures can show the parent of a compound that is named as a salt.
# Legend:
# [1] = biological target: T1, human S1P1 receptor (Homo sapiens, UniProt P21453); test: S1P1 GTPγS assay; format: biochemical; conditions: [35S]-GTPγS binding, human S1P1 rat hepatoma (RH7777) membranes, agonist; read-out: pEC50 (S1P1 GTPγS assay) (converted)
# T1 construct: expressed in transfected cells; membranes
# T1 sequence (P21453 whole entry): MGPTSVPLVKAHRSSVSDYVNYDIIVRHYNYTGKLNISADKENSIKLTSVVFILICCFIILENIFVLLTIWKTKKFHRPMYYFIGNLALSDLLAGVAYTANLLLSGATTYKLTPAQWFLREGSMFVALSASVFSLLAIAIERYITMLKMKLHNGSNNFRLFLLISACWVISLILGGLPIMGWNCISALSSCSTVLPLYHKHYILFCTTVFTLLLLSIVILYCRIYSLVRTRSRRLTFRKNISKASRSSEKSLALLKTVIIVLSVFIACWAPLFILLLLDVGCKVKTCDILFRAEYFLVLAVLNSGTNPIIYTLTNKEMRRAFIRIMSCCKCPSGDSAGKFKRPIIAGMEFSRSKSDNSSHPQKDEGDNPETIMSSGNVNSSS
# Description: (§1) For membrane preparations all steps were performed at 4° C. Rat hepatoma cells stably expressing the human S1P1 receptor or Rat Basophilic Leukaemia cells (RBL) stably expressing human S1P3 receptor were grown to 80% confluency before being harvested into 10 ml Phospho-Buffered Saline (PBS) and centrifuged at 1200 rpm for 5 minutes. After removal of the supernatant, the pellet was re-suspended and cells were homogenised within a glass Waring blender for 2 bursts of 15 secs in 200 mls of buffer (50 mM HEPES, 1 mM leupeptin, 25 μg/ml bacitracin, 1 mM EDTA, 1 mM PMSF, 2 μM pepstatin A). The blender was plunged into ice for 5 mins after the first burst and 10-40 mins after the final burst to allow foam to dissipate. The material was then spun at 500 g for 20 mins and the supernatant spun for 36 mins at 48,000 g. The pellet was resuspended in the same buffer as above but without PMSF and pepstatin A. The material was then forced through a 0.6 mm needle, made up to the required volume, (usually ×4 the volume of the original cell pellet), aliquoted and stored frozen at −80° C.
# as §1, with “All” for “For membrane preparations all”, “Cells” for “Rat hepatoma cells stably expressing the human S1P1 receptor or Rat Basophilic Leukaemia cells (RBL) stably expressing human S1P3 receptor were grown to 80% confluency before being harvested into 10 ml Phospho-Buffered Saline (PBS) and centrifuged at 1200 rpm for 5 minutes. After removal of the supernatant, the pellet was re-suspended and cells”
# Human S1P1 rat hepatoma membranes (1.5 μg/well) were adhered to a wheatgerm agglutinin (WGA)-coated scintillation proximity assay (SPA) beads (0.125 mg/well) in assay buffer (HEPES 20 mM, MgCl2 10 mM, NaCl 100 mM and pH adjusted to 7.4 using KOH 5M, GDP 10 μM FAC (final assay concentration) and saponin 90 μg/ml FAC was also added).
# (§2) After 30 minutes pre-coupling on ice the bead and membrane suspension was dispensed into a white Greiner polypropylene LV384-well plate (5 μl/well), containing 0.1 μl of the compound. 5 μl/well [^35S]-GTPγS (0.5 nM final radioligand conc) made up in assay buffer was then added to agonist plates. The final assay cocktail (10.1 μl) was then centrifuged at 1000 rpm for 5 minutes then read immediately on a Viewlux reader.
# (§3) All test compounds were dissolved in DMSO at a concentration of 10 mM and were prepared in 100% DMSO using a 1 in 4 dilution step to provide 11 point dose response curves. The dilutions were transferred to the assay plates ensuring that the DMSO concentration was constant across the plate for all assays.
# (§4) All data was normalized to the mean of 16 high and 16 low control wells on each plate. A four parameter curve fit was then applied.
# (§5) S1P1 expressing RH7777 membranes (1.5 μg/well) membranes (1.5 μg/well) were homogenised by passing through a 23G needle. These were then adhered to WGA-coated SPA beads (0.125 mg/well) in assay buffer (HEPES 20 mM, MgCl2 10 mM, NaCl 100 mM and pH adjusted to 7.4 using KOH 5M). GDP 10 μM FAC and saponin 90 μg/ml FAC were also added
# (§6) After 30 minutes precoupling on ice, the bead and membrane suspension was dispensed into white Greiner polypropylene LV 384-well plates (5 μl/well), containing 0.1 μl of compound. 5 μl/well [^35S]-GTPγS (0.5 nM for S1P1 or 0.3 nM for S1P3 final radioligand concentration) made in assay buffer was then added to the plates. The final assay cocktail (10.1 μl) was then sealed, spun on a centrifuge, then read immediately on a Viewlux instrument.
# [2] = biological target: T2, human S1P3 receptor (Homo sapiens, UniProt Q99500); test: S1P3 GTPγS assay; format: biochemical; conditions: [35S]-GTPγS binding, S1P3 RBL-2H3 membranes, agonist; read-out: pEC50 (S1P3 GTPγS assay) (converted)
# T2 construct: expressed in transfected cells; membranes
# T2 sequence (Q99500 whole entry): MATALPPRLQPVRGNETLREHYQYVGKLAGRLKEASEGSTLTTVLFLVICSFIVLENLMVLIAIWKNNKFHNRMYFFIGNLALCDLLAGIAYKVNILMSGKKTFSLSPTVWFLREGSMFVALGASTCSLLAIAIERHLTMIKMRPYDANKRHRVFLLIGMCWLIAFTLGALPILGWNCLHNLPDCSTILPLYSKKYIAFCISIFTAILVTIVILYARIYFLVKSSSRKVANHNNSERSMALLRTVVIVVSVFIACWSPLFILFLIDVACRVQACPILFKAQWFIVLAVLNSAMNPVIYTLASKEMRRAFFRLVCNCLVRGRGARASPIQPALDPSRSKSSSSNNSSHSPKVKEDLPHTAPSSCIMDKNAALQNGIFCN
# Description: as §1
# S1P3 membranes from rat basophilic leukaemia cells (RBL-2H3)(1.5 μg/well) were adhered to WGA-coated SPA beads (0.125 mg/well) in assay buffer (HEPES 20 mM, MgCl2 3 mM, NaCl 100 mM and pH adjusted to 7.4 using KOH 5M), GDP 10 μM FAC and saponin 90 μg/ml FAC was also added).
# as §2, with “μl) was centrifuged at” for “μl) was then centrifuged at”
# as §3, §4
# as §5, with “S1P3” for “S1P1”, “RBL” for “RH7777 membranes (1.5 μg/well)”
# as §6
# [3] = tested on: circulating lymphocytes; conditions: animals and man; cited from earlier work
# [4] = clinical studies, first 24 hours of treatment; cited from earlier work
SMILES,EC50 [1],EC50 [2],effect on circulating lymphocytes [3],bradycardia on treatment [4]
CCCCCCCCc1ccc(CCC(N)(CO)CO)cc1 [FTY720],–,–,reduce circulating lymphocytes,bradycardia in the first 24 hours of treatment
"CC(C)Oc1ccc(-c2nc(-c3cccc4c3OCCNC4CCC(=O)O)no2)cc1C#N (centres unmarked) [Example 14, 3-[9-(5-{3-cyano-4-[(1-methylethyl)oxy]phenyl}-1,2,4-oxadiazol-3-yl)-2,3,4,5-tetrahydro-1,4-benzoxazepin-5-yl]propanoic acid, formic acid salt]",< 0.01 µM,–,–,–
"CC(C)Oc1ccc(-c2nc(-c3cccc4c3OCCNC4CC(=O)O)no2)cc1Cl (centres unmarked) [Example 7, [9-(5-{3-Chloro-4-[(1-methylethyl)oxy]phenyl}-1,2,4-oxadiazol-3-yl)-2,3,4,5-tetrahydro-1,4-benzoxazepin-5-yl]acetic acid hydrochloride]",< 0.1 µM,> 10 µM,–,–
"CC(C)Oc1ncc(-c2nc(-c3cccc4c3OCCNC4CCCC(=O)O)no2)cc1Cl (centres unmarked) [Example 11, 4-[9-(5-{5-chloro-6-[(1-methylethyl)oxy]-3-pyridinyl}-1,2,4-oxadiazol-3-yl)-2,3,4,5-tetrahydro-1,4-benzoxazepin-5-yl]butanoic acid hydrochloride]",< 0.1 µM,–,–,–
"CC(C)Oc1ccc(-c2nc(-c3cccc4c3OCCNC4CC(=O)O)no2)cc1C#N (centres unmarked) [Example 8, [9-(5-{3-cyano-4-[(1-methylethyl)oxy]phenyl}-1,2,4-oxadiazol-3-yl)-2,3,4,5-tetrahydro-1,4-benzoxazepin-5-yl]acetic acid]",–,> 10 µM,–,–
"CC(C)Oc1ccc(-c2nc(-c3cccc4c3OCCNC4CCCC(=O)O)no2)cc1C#N (centres unmarked) [Example 10, 4-[9-(5-{3-cyano-4-[(1-methylethyl)oxy]phenyl}-1,2,4-oxadiazol-3-yl)-2,3,4,5-tetrahydro-1,4-benzoxazepin-5-yl]butanoic acid hydrochloride salt]",< 0.1 µM,> 10 µM,–,–
"CC(C)Oc1ncc(-c2nc(-c3cccc4c3OCCNC4CC(=O)O)no2)cc1Cl (centres unmarked) [Example 9, [9-(5-{5-Chloro-6-[(1-methylethyl)oxy]-3-pyridinyl}-1,2,4-oxadiazol-3-yl)-2,3,4,5-tetrahydro-1,4-benzoxazepin-5-yl]acetic acid]",< 0.1 µM,> 10 µM,–,–

# Continued, in another order:
EC50 [1],EC50 [2],SMILES,effect on circulating lymphocytes [3],bradycardia on treatment [4]
< 0.01 µM,–,"CC(C)Oc1ccc(-c2nc(-c3ccc4c(c3)CNC(CCC(=O)O)CO4)no2)cc1Cl (centres unmarked) [Example 6, 3-[7-(5-{3-Chloro-4-[(1-methylethyl)oxy]phenyl}-1,2,4-oxadiazol-3-yl)-2,3,4,5-tetrahydro-1,4-benzoxazepin-3-yl]propanoic acid hydrochloride]",–,–
< 0.01 µM,> 10 µM,"CC(C)Oc1ccc(-c2nc(-c3cccc4c3OCCNC4CCCC(=O)O)no2)cc1Cl (centres unmarked) [Example 12, 4-[9-(5-{3-chloro-4-[(1-methylethyl)oxy]phenyl}-1,2,4-oxadiazol-3-yl)-2,3,4,5-tetrahydro-1,4-benzoxazepin-5-yl]butanoic acid hydrochloride]",–,–
< 0.1 µM,–,"CC(C)Oc1ccc(-c2nc(-c3ccc4c(c3)CNC(C(=O)O)CO4)no2)cc1Cl (centres unmarked) [Example 5, 7-(5-{3-Chloro-4-[(1-methylethyl)oxy]phenyl}-1,2,4-oxadiazol-3-yl)-2,3,4,5-tetrahydro-1,4-benzoxazepine-3-carboxylic acid hydrochloride]",–,–
–,> 10 µM,"CC(C)Oc1ccc(-c2nc(-c3ccc4c(c3)CCCNC4CCC(=O)O)no2)cc1Cl (centres unmarked) [Example 2, 3-[7-(5-{3-Chloro-4-[(1-methylethyl)oxy]phenyl}-1,2,4-oxadiazol-3-yl)-2,3,4,5-tetrahydro-1H-2-benzazepin-1-yl]propanoic acid hydrochloride]",–,–
< 0.01 µM,> 10 µM,"CC(C)Oc1ccc(-c2nc(-c3cccc4c3OCCNC4CCC(=O)O)no2)cc1Cl (centres unmarked) [Example 13, 3-[9-(5-{3-Chloro-4-[(1-methylethyl)oxy]phenyl}-1,2,4-oxadiazol-3-yl)-2,3,4,5-tetrahydro-1,4-benzoxazepin-5-yl]propanoic acid, formic acid salt]",–,–
–,> 10 µM,"CC(C)Oc1ccc(-c2nc(-c3ccc4c(c3)CCCNC4CCC(N)=O)no2)cc1Cl (centres unmarked) [Example 1, 3-[7-(5-{3-chloro-4-[(1-methylethyl)oxy]phenyl}-1,2,4-oxadiazol-3-yl)-2,3,4,5-tetrahydro-1H-2-benzazepin-1-yl]propanamide]",–,–
–,> 10 µM,"CC(C)Oc1ccc(-c2nc(-c3ccc4c(c3)CCCNC4CCCO)no2)cc1Cl (centres unmarked) [Example 3, 3-[7-(5-{3-Chloro-4-[(1-methylethyl)oxy]phenyl}-1,2,4-oxadiazol-3-yl)-2,3,4,5-tetrahydro-1H-2-benzazepin-1-yl]-1-propanol hydrochloride]",–,–
